Assay results published in patent US12667559B2, “Dihydronaphthyridinone compound, and preparation method therefor and medical use thereof” (GENFLEET THERAPEUTICS (SHANGHAI) INC., priority 2020, dated 2026).

System: U937 cells
Test: Inhibitory activity against TNF-α induced programmed cell necrosis (U937 cells, CellTiter-Glo)
Assay type: cell-based, human
Conditions: Homo sapiens, U-937, 48 h, U937 cells, human TNF-α and Q-VD-Oph induced necrosis, 48 hours, survival rate; read-out: U937 IC50

Row | Compound | IC50
1 | O=C(COCc1ccccc1)Nc1cn2nc(-c3cnc4c(c3)C(=O)N(Cc3cc(F)cc(F)c3OC3CCOCC3)CC4)ccc2n1 [Z94, 2-(Benzoxy)-N-(6-(6-(3,5-difluoro-2-((tetrahydro-2H-pyran-4-yl)oxy)benzyl)-5-oxo-5,6,7,8-tetrahydro-1,6-naphthyridin-3-yl)imidazo[1,2-b]pyridazin-2-yl)acetamide] | 2.5 nM
2 | CC(=O)Nc1cn2nc(-c3cnc4c(c3)C(=O)N(Cc3cc(F)ccc3OC3CCCC3)CC4)ccc2n1 [Z6, N-(6-(6-(2-(cyclopentyloxy)-5-fluorobenzyl)-5-oxo-5,6,7,8-tetrahydro-1,6-naphthyridin-3-yl)imidazol[1,2-b]pyridazin-2-yl)acetamide] | 0.4 nM
3 | CC(=O)Nc1cn2nc(-c3cnc4c(c3)C(=O)N(c3cnn(C(C)c5ccc(F)cc5)c3)CC4)ccc2n1 (stereo not drawn) [Z1] | 2.8 nM
4 | C[C@H](c1ccc(F)cc1)n1cc(N2CCc3ncc(-c4cc(C(F)(F)F)c5c(N)ncnn45)cc3C2=O)cn1 (single isomer, unassigned) [Z35-1] | 0.3 nM
5 | C[C@@H](c1ccc(F)cc1)n1cc(N2CCc3ncc(-c4cc(C(F)(F)F)c5c(N)ncnn45)cc3C2=O)cn1 (single isomer, unassigned) [Z35-2] | 0.2 nM
6 | O=C(CO)Nc1cn2nc(-c3cnc4c(c3)C(=O)N(Cc3cc(F)cc(F)c3OC3CCOCC3)CC4)ccc2n1 [Z39, N-(6-(6-(3,5-difluoro-2-((tetrahydro-2H-pyran-4-yl)oxy)benzyl)-5-oxo-5,6,7,8-tetrahydro-1,6-naphthyridin-3-yl)imidazo[1,2-b]pyridazin-2-yl)-2-hydroxyacetamide] | 0.9 nM
7 | C[C@@](O)(C(=O)N1C[C@@H](N2CCc3ncc(-c4ccc5c(N)ncnn45)cc3C2=O)[C@@H](F)C1)C(F)(F)F [Z31, cis-3-(4-aminopyrrolo[2,1-f][1,2,4]triazin-7-yl)-6-(4-fluoro-1-((R)-3,3,3-trifluoro-2-hydroxy-2-methylpropionyl)pyrrolidin-3-yl)-7,8-dihydro-1,6-naphthyridin-5(6H)-one] | 18.2 nM
8 | O=C1c2cc(-c3ccn4ncnc4c3)cnc2CCN1Cc1cc(F)cc(F)c1OC1CCOCC1 [Z13, 3-([1,2,4]triazolo[1,5-a]pyridin-7-yl)-6-(3,5-difluoro-2-((tetrahydro-2H-pyran-4-yl)oxy)benzyl)-7,8-dihydro-1,6-naphthyridin-5(6H)-one] | 1.7 nM
9 | CC(=O)Nc1cn2nc(-c3cnc4c(c3)C(=O)N(Cc3cc(F)cc(F)c3OC3CCOC3)CC4)ccc2n1 (stereo not drawn) [Z3, N-(6-(6-(3,5-difluoro-2-((tetrahydrofuran-3-yl)oxy)benzyl)-5-oxo-5,6,7,8-tetrahydro-1,6-naphthyridin-3-yl)imidazo[1,2-b]pyridazin-2-yl)acetamide] | 1.4 nM
10 | Nc1nc2cc(-c3cnc4c(c3)C(=O)N(Cc3cc(F)ccc3OC(F)(F)F)CC4)ccn2n1 [Z102, 3-(2-amino-[1,2,4]triazolo[1,5-a]pyridyl-7-yl)-6-(5-fluoro-2-(trifluoromethoxy)benzyl)-7,8-dihydro-1,6-naphthyridin-5(6H)-one] | 21.1 nM
11 | Cc1nc2c(cc1-c1ccn3nc(N)nc3c1)C(=O)N(Cc1cc(OC(F)(F)F)ccc1F)CC2 [Z57, 3-(2-amino-[1,2,4]triazolo[1,5-a]pyridyl-7-yl)-6-(2-fluoro-5-(trifluoromethoxy)benzyl)-2-methyl-7,8-dihydro-1,6-naphthyridin-5(6H)-one] | 2 nM
12 | Nc1nc2cc(-c3cnc4c(c3)C(=O)N(Cc3cc(F)cc(F)c3OC3CCOC3)CC4)ccn2n1 (stereo not drawn) [Z71] | 1.1 nM

Same assay, conditions: Homo sapiens, U-937, 48 h, read-out: U937 IC50

Row | Compound | IC50
13 | Cn1c(N)nc2ccc(-c3cnc4c(c3)C(=O)N(Cc3cc(OC(F)(F)F)ccc3F)CC4)cc21 [Z14, 3-(2-amino-1-methyl-1H-benzo[d]imidazol-6-yl)-6-(2-fluoro-5-(trifluoromethoxy)benzyl)-7,8-dihydro-1,6-naphthyridin-5(6H)-one] | 10.2 nM

Same assay, conditions: U937 cells, human TNF-α and Q-VD-Oph induced necrosis, 48 hours, survival rate; read-out: U937 IC50

Row | Compound | IC50
14 | CC(=O)Nc1cn2nc(-c3cnc4c(c3)C(=O)N(Cc3ncccc3OC3CCOCC3)CC4)ccc2n1 [Z28, N-(6-(5-oxo-6-((3-((tetrahydro-2H-pyran-4-yl)oxy)pyridyl-2-yl)methyl)-5,6,7,8-tetrahydro-1,6-naphthyridin-3-yl)imidazo[1,2-b]pyridazin-2-yl)acetamide] | 12.7 nM
15 | CC(c1cc(F)ccc1-c1cnn(C)c1)N1CCc2ncc(-c3ccn4nc(N)nc4c3)cc2C1=O (stereo not drawn) [Z80, 3-(2-amino-[1,2,4]triazolo[1,5-a]pyridyl-7-yl)-6-(1-(5-fluoro-2-(1-methyl-1H-pyrazol-4-yl)phenyl)ethyl)-7,8-dihydro-1,6-naphthyridin-5(6H)-one] | 19.8 nM
16 | C[C@@](O)(C(=O)N1C[C@@H](N2CCc3ncc(-c4cc(C(F)(F)F)c5c(N)ncnn45)cc3C2=O)[C@@H](F)C1)C(F)(F)F (mixture of isomers) [Z27, cis-3-(4-amino-5-(trifluoromethyl)pyrrolo[2,1-f][1,2,4]triazin-7-yl)-6-(4-fluoro-1-((R)-3,3,3-trifluoro-2-hydroxy-2-methylpropionyl)pyrrolidin-3-yl)-7,8-dihydro-1,6-naphthyridin-5(6H)-one] | 6 nM
17 | CC(=O)Nc1cn2nc(-c3cnc4c(c3)C(=O)N(Cc3cc(F)ccc3CN3CCOCC3)CC4)ccc2n1 [Z19] | 34.7 nM

Same assay, conditions: U-937; U937 cells, human TNF-α and Q-VD-Oph induced necrosis, 48 hours, survival rate; read-out: U937 IC50

Row | Compound | IC50
18 | Nc1nc2cc(-c3cnc4c(c3)C(=O)N(Cc3cccc(OC(F)(F)F)c3)CC4)ccn2n1 [Z50, 3-(2-amino-[1,2,4]triazolo[1,5-a]pyridyl-7-yl)-6-(3-(trifluoromethoxy)benzyl)-7,8-dihydro-1,6-naphthyridin-5(6H)-one] | 40 nM
19 | Nc1nc2cc(-c3cnc4c(c3)C(=O)N(Cc3ccccc3OC(F)(F)F)CC4)ccn2n1 [Z44, 3-(2-amino-[1,2,4]triazolo[1,5-a]pyridyl-7-yl)-6-(2-(trifluoromethoxy)benzyl)-7,8-dihydro-1,6-naphthyridin-5(6H)-one] | 42 nM
20 | CC(=O)Nc1cn2nc(-c3cnc4c(c3)C(=O)N(Cc3cc(F)ccc3-c3cnn(C)c3)CC4)ccc2n1 [Z23, N-(6-(6-(5-fluoro-2-(1-methyl-1H-pyrazol-4-yl)benzyl)-5-oxo-5,6,7,8-tetrahydro-1,6-naphthyridin-3-yl)imidazo[1,2-b]pyridazin-2-yl)acetamide] | 24.3 nM
21 | [2H]C([2H])([2H])C(=O)Nc1cn2nc(-c3cnc4c(c3)C(=O)N(Cc3cc(F)cc(F)c3OC3CCOCC3)CC4)ccc2n1 [Z38, N-(6-(6-(3,5-difluoro-2-((tetrahydro-2H-pyran-4-yl)oxy)benzyl)-5-oxo-5,6,7,8-tetrahydro-1,6-naphthyridin-3-yl)imidazo[1,2-b]pyridazin-2-yl)acetamide-2,2,2-d3] | 1.3 nM
22 | Nc1nc2cc(-c3cnc4c(c3)C(=O)N(Cc3ncccc3OCC3CC3)CC4)ccn2n1 [Z61, 3-(2-amino-[1,2,4]triazolo[1,5-a]pyridyl-7-yl)-6-((3-(cyclopropylmethoxy)pyridyl-2-yl)methyl)-7,8-dihydro-1,6-naphthyridin-5(6H)-one] | 14 nM
23 | Nc1nc2ccc(-c3cnc4c(c3)C(=O)N(Cc3cc(OC(F)(F)F)ccc3F)CC4)cc2[nH]1 [Z18, 3-(2-amino-1H-benzo[d]imidazol-6-yl)-6-(2-fluoro-5-(trifluoromethoxy)benzyl)-7,8-dihydro-1,6-naphthyridin-5(6H)-one] | 70.2 nM
24 | Nc1nc2ccc(-c3cnc4c(c3)C(=O)N(Cc3cc(OC(F)(F)F)ccc3F)CC4)cc2o1 [Z16, 3-(2-aminobenzo[d]oxazol-6-yl)-6-(2-fluoro-5-(trifluoromethoxy)benzyl)-7,8-dihydro-1,6-naphthyridin-5(6H)-one] | 10.7 nM
